Laboratory results reported in PubChem BioAssay AID220 (DTP/NCI, 2004).
Values joined by “and” are separate entries in the source; they are usually repeats but may differ in a detail not shown here. Identical values can stand only once. Inconclusive results are not listed. Starred links: 1 amine or outer side, 2 acyl side, 3 side chain; linkers in the order of their positions; H or OH if unused. Positions of bridges follow the written chain, without caps; N, C: chain ends. Non-standard residues stand in square brackets, D forms with d. Residues, ends and D or L forms follow the SMILES beside them. Chains are numbered I, II in the order given. Actinocin(1to9) = Cc1c2oc3c(C)ccc(C(=O)[*:2])c3nc-2c(C(=O)[*:1])c(N)c1=O; NMeV = CN[CH](C(=O)O)C(C)C; Aze = O=C(O)[CH]1CCN1; Sar = CNCC(=O)O

Tested on: CD8F1 mice, subcutaneous mammary adenocarcinoma, T/C%
Assay: NCI In Vivo Anticancer Drug Screen. Data for tumor model Mammary Adenocarcinoma CD8F1 (subcutaneous) in CD8F1
Details: higher = larger tumour
In short: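 Ratio of treated to vehicle-control outcome, based on either survival or tumor size, in mice bearing transplantable tumors given the test compound.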

[1] = endpoint: median tumor weight (est.), dose: 25.0 mg/kg/injection, schedule: Q07DX005 (ip), vehicle: saline
[2] = endpoint: median tumor weight (est.), dose: 100.0 mg/kg/injection, schedule: Q07DX005 (ip), vehicle: saline
[3] = endpoint: median tumor weight (est.), dose: 4.0 mg/kg/injection, schedule: Q07DX005 (ip), vehicle: saline
[4] = endpoint: median tumor weight (est.), dose: 8.0 mg/kg/injection, schedule: Q07DX005 (ip), vehicle: saline
[5] = endpoint: median tumor weight (est.), dose: 16.0 mg/kg/injection, schedule: Q07DX005 (ip), vehicle: saline
[6] = endpoint: median tumor weight (est.), dose: 32.0 mg/kg/injection, schedule: Q07DX005 (ip), vehicle: saline
[7] = endpoint: median tumor weight (est.), dose: 50.0 mg/kg/injection, schedule: Q07DX005 (ip), vehicle: saline
[8] = endpoint: median tumor weight (est.), dose: 75.0 mg/kg/injection, schedule: Q07DX005 (ip), vehicle: saline

In the case of CC1CN1P1(N2CC2C)=NP(N2CC2C)(N2CC2C)=NP(N2CC2C)(N2CC2C)=N1 (stereo unspecified), the T/C (endpoint: mean tumor weight, dose: 12.5 mg/kg/injection, schedule: Q04DX005 (ip), vehicle: saline) is reported as 61 % of control, the T/C (endpoint: mean tumor weight, dose: 25.0 mg/kg/injection, schedule: Q04DX005 (ip), vehicle: saline) is reported as 97 % of control and the T/C (endpoint: mean tumor weight, dose: 25.0 mg/kg/injection, schedule: Q07DX005 (ip), vehicle: saline) is reported as 119 % of control. For the same compound, the T/C (endpoint: mean tumor weight, dose: 50.0 mg/kg/injection, schedule: Q04DX005 (ip), vehicle: saline) was 66 % of control, the T/C (endpoint: mean tumor weight, dose: 50.0 mg/kg/injection, schedule: Q07DX005 (ip), vehicle: saline) was 92 % of control and the T/C (endpoint: mean tumor weight, dose: 100.0 mg/kg/injection, schedule: Q04DX005 (ip), vehicle: saline) was 13 % of control. The T/C (endpoint: mean tumor weight, dose: 100.0 mg/kg/injection, schedule: Q07DX005 (ip), vehicle: saline) was 49 % of control, the T/C [1] was 70 % of control and the T/C [2] was 6 % of control and 11 % of control.
With COc1cc([C@@H]2c3cc4c(cc3[C@@H](OC3OC5COC(C)OC5C(O)C3O)[C@H]3COC(=O)[C@H]23)OCO4)cc(OC)c1O (stereo partly specified) the T/C (endpoint: median tumor weight (est.), dose: 2.0 mg/kg/injection, schedule: Q07DX005 (ip), vehicle: saline) was 74 % of control, the T/C [3] was 110 % of control and the T/C [4] was 51 % of control. For the same compound, the T/C (endpoint: median tumor weight (est.), dose: 16.0 mg/kg/injection, schedule: Q07DX005 (ip), vehicle: clinical formulation) was 38 % of control, the T/C [5] was 25 % of control and 48 % of control and the T/C (endpoint: median tumor weight (est.), dose: 32.0 mg/kg/injection, schedule: Q07DX005 (ip), vehicle: clinical formulation) was 11 % of control. The T/C [6] was 8 % of control and 9 % of control.
For O=P1(N(CCCl)CCCl)NCCCO1 (stereo unspecified), the T/C (endpoint: mean tumor weight, dose: 20.0 mg/kg/injection, schedule: Q01DX018 (ip), vehicle: saline) was 8 % of control, the T/C (endpoint: mean tumor weight, dose: 37.5 mg/kg/injection, schedule: Q07DX004 (ip), vehicle: saline) was 3 % of control and the T/C (endpoint: mean tumor weight, dose: 40.0 mg/kg/injection, schedule: Q01DX009 (ip), vehicle: saline) was 4 % of control and 9 % of control. For the same compound, the T/C (endpoint: mean tumor weight, dose: 50.0 mg/kg/injection, schedule: Q07DX004 (ip), vehicle: saline) was 3 % of control, the T/C (endpoint: median tumor weight (est.), dose: 10.0 mg/kg/injection, schedule: Q01DX005 (ip), vehicle: saline) was 55 % of control and the T/C (endpoint: median tumor weight (est.), dose: 20.0 mg/kg/injection, schedule: Q01DX005 (ip), vehicle: saline) was 1 % of control. The T/C (endpoint: median tumor weight (est.), dose: 25.0 mg/kg/injection, schedule: Q01DX005 (ip), vehicle: saline) was 80 % of control, the T/C (endpoint: median tumor weight (est.), dose: 37.5 mg/kg/injection, schedule: Q01DX005 (ip), vehicle: saline) was 17 % of control and the T/C (endpoint: median tumor weight (est.), dose: 37.5 mg/kg/injection, schedule: Q04DX005 (ip), vehicle: saline) was 60 % of control. The T/C (endpoint: median tumor weight (est.), dose: 40.0 mg/kg/injection, schedule: Q01DX005 (ip), vehicle: saline) was 8 % of control, the T/C (endpoint: median tumor weight (est.), dose: 50.0 mg/kg/injection, schedule: Q01DX005 (ip), vehicle: saline) was 15 % of control and the T/C (endpoint: median tumor weight (est.), dose: 50.0 mg/kg/injection, schedule: Q04DX005 (ip), vehicle: saline) was 11 % of control. The T/C [7] was 27 % of control, the T/C (endpoint: median tumor weight (est.), dose: 67.0 mg/kg/injection, schedule: Q07DX005 (ip), vehicle: saline) was 6 % of control and the T/C (endpoint: median tumor weight (est.), dose: 75.0 mg/kg/injection, schedule: Q01DX005 (ip), vehicle: saline) was 1 % of control. The T/C (endpoint: median tumor weight (est.), dose: 75.0 mg/kg/injection, schedule: Q04DX005 (ip), vehicle: saline) was 1 % of control, the T/C [8] was 5 % of control and the T/C (endpoint: median tumor weight (est.), dose: 80.0 mg/kg/injection, schedule: Q01DX005 (ip), vehicle: saline) was 2 % of control. For the same compound, the T/C [2] was 1 % of control, the T/C (endpoint: median tumor weight (est.), dose: 111.0 mg/kg/injection, schedule: Q01DX001 (ip), vehicle: saline) was 32 % of control and the T/C (endpoint: median tumor weight (est.), dose: 167.0 mg/kg/injection, schedule: Q01DX001 (ip), vehicle: saline) was 34 % of control. For the same compound, the T/C (endpoint: median tumor weight (est.), dose: 250.0 mg/kg/injection, schedule: Q01DX001 (ip), vehicle: saline) was 9 % of control, the T/C (endpoint: median tumor weight change, dose: 25.0 mg/kg/injection, schedule: Q01DX001 (ip), vehicle: saline) was 91 % of control and the T/C (endpoint: median tumor weight change, dose: 50.0 mg/kg/injection, schedule: Q01DX001 (ip), vehicle: saline) was 42 % of control and 62 % of control. The T/C (endpoint: median tumor weight change, dose: 100.0 mg/kg/injection, schedule: Q01DX001 (ip), vehicle: saline) was 5 % of control and 29 % of control and the T/C (endpoint: median tumor weight change, dose: 400.0 mg/kg/injection, schedule: Q01DX001 (ip), vehicle: saline) was -56 % of control.
With C=C(C)C12CC(C)C34OC5(CCCCCCCC(C)C6C(C)C(OC(=O)c7ccccc7)C(O)(C(O)C7(COC(=O)CCCCCCCCCCCCCCC)OC7C3C1O5)C64)O2 (stereo unspecified) the T/C (endpoint: mean tumor weight, dose: 25.0 micrograms/kg/injection, schedule: Q01DX009 (ip), vehicle: Klucel (hydroxypropylcellulose) (HPC)) was 82 % of control, the T/C (endpoint: mean tumor weight, dose: 50.0 micrograms/kg/injection, schedule: Q01DX009 (ip), vehicle: Klucel (hydroxypropylcellulose) (HPC)) was 150 % of control and the T/C (endpoint: mean tumor weight, dose: 100.0 micrograms/kg/injection, schedule: Q01DX009 (ip), vehicle: Klucel (hydroxypropylcellulose) (HPC)) was 114 % of control. For the same compound, the T/C (endpoint: mean tumor weight, dose: 200.0 micrograms/kg/injection, schedule: Q01DX009 (ip), vehicle: Klucel (hydroxypropylcellulose) (HPC)) was 151 % of control.
In the case of CC(=O)OC1C(O)C(C)OC(OC2C(OC(=O)C3CCC4C(C3)OC3(CC(OC(=O)/C=C/c5ccccc5)C(C)CO3)C43CO3)OC(C)C(O)C2OC(C)=O)C1O (stereo unspecified), the T/C (endpoint: median tumor weight change, dose: 10.0 mg/kg/injection, schedule: Q01DX001 (ip), vehicle: distilled water + Tween-80) is reported as 107 % of control, the T/C (endpoint: median tumor weight change, dose: 40.0 mg/kg/injection, schedule: Q01DX001 (ip), vehicle: distilled water + Tween-80) is reported as 100 % of control and the T/C (endpoint: median tumor weight change, dose: 80.0 mg/kg/injection, schedule: Q01DX001 (ip), vehicle: distilled water + Tween-80) is reported as 110 % of control.
In the case of NC(=S)c1ncn(C2OC(CO)C(O)C2O)c1N (stereo unspecified), the T/C (endpoint: median tumor weight (est.), dose: 12.5 mg/kg/injection, schedule: Q07DX005 (ip), vehicle: saline) is reported as 31 % of control, the T/C [1] is reported as 48 % of control and the T/C (endpoint: median tumor weight (est.), dose: 25.0 mg/kg/injection, schedule: Q07DX005 (ip), vehicle: suspension in saline) is reported as 192 % of control. For the same compound, the T/C [7] was 39 % of control, the T/C (endpoint: median tumor weight (est.), dose: 50.0 mg/kg/injection, schedule: Q07DX005 (ip), vehicle: suspension in saline) was 49 % of control and the T/C [2] was 31 % of control. The T/C (endpoint: median tumor weight (est.), dose: 100.0 mg/kg/injection, schedule: Q07DX005 (ip), vehicle: suspension in saline) was 45 % of control, the T/C (endpoint: median tumor weight (est.), dose: 200.0 mg/kg/injection, schedule: Q07DX005 (ip), vehicle: saline) was 12 % of control and the T/C (endpoint: median tumor weight (est.), dose: 200.0 mg/kg/injection, schedule: Q07DX005 (ip), vehicle: suspension in saline) was 95 % of control. For the same compound, the T/C (endpoint: median tumor weight (est.), dose: 400.0 mg/kg/injection, schedule: Q07DX005 (ip), vehicle: saline) was 10 % of control and the T/C (endpoint: median tumor weight (est.), dose: 400.0 mg/kg/injection, schedule: Q07DX005 (ip), vehicle: suspension in saline) was 121 % of control.
In the case of Cc1c2oc3c(C)ccc(C(=O)NC4C(=O)NC(C(C)C)C(=O)N5CCCC5C(=O)N(C)CC(=O)N(C)C(C(C)C)C(=O)OC4C)c3nc-2c(C(=O)NC2C(=O)NC(C(C)C)C(=O)N3CCC3C(=O)N(C)CC(=O)N(C)C(C(C)C)C(=O)OC2C)c(N)c1=O (stereo unspecified) (I: TV[Aze][Sar][NMeV] / II: TVP[Sar][NMeV]; ester I:1-I:C, II:1-II:C; linker I:N-II:N via Actinocin(1to9); configuration not given here), the T/C (endpoint: median tumor weight (est.), dose: 300.0 micrograms/kg/injection, schedule: Q07DX005 (ip), vehicle: saline + alcohol) is reported as 34 % of control and 44 % of control and the T/C (endpoint: median tumor weight (est.), dose: 600.0 micrograms/kg/injection, schedule: Q07DX005 (ip), vehicle: saline + alcohol) is reported as 2 % of control.
For C=C(C)[C@H]1Cc2c(ccc3c2O[C@@H]2COc4cc(OC)c(OC)cc4[C@@H]2C3=O)O1, the T/C [3] was 95 % of control, the T/C [4] was 85 % of control and the T/C [5] was 102 % of control. For the same compound, the T/C [6] was 95 % of control.
Nc1ncnc2c1ncn2C1OC(CO)C(O)C1O (stereo unspecified) was tested, and the T/C (endpoint: median tumor weight (est.), dose: 16.0 mg/kg/injection, schedule: Q07DX005 (ip), vehicle: Klucel (hydroxypropylcellulose) (HPC)) was 103 % of control, the T/C (endpoint: median tumor weight (est.), dose: 37.5 mg/kg/injection, schedule: Q07DX005 (ip), vehicle: saline) was 47 % of control and the T/C [8] was 33 % of control. For the same compound, the T/C (endpoint: median tumor weight (est.), dose: 128.0 mg/kg/injection, schedule: Q07DX005 (ip), vehicle: Klucel (hydroxypropylcellulose) (HPC)) was 83 % of control and 99 % of control, the T/C (endpoint: median tumor weight (est.), dose: 150.0 mg/kg/injection, schedule: Q07DX005 (ip), vehicle: saline) was 47 % of control and the T/C (endpoint: median tumor weight (est.), dose: 300.0 mg/kg/injection, schedule: Q07DX005 (ip), vehicle: saline) was 88 % of control. The T/C (endpoint: median tumor weight (est.), dose: 600.0 mg/kg/injection, schedule: Q07DX005 (ip), vehicle: saline) was 71 % of control and the T/C (endpoint: median tumor weight (est.), dose: 1200.0 mg/kg/injection, schedule: Q07DX005 (ip), vehicle: saline) was 60 % of control.
With NC1=NC(=O)N2CC12 (stereo unspecified) the T/C (endpoint: median tumor weight change, dose: 125.0 mg/kg/injection, schedule: Q01DX001 (ip), vehicle: saline) was 115 % of control and the T/C (endpoint: median tumor weight change, dose: 250.0 mg/kg/injection, schedule: Q01DX001 (ip), vehicle: saline) was 122 % of control.
